Assay results from patent US8975442B2, “Process for the preparation of and crystalline forms of optical enantiomers of modafinil” (Teva Sante, priority 2002, dated 2015).

Tests used:
Assay type in all cases: physicochemical
[1] = Solubility of modafinil acid in ethanol
From the text: Solubility of the Racemic Mixture in Ethanol:

[2] = Solubility of modafinil acid in 2-methoxyethanol
From the text: Solubility of the Racemic Mixture in 2-Methoxyethanol: […]

[3] = Solubility of modafinil acid in methanol
From the text: Solubility of the Racemic Mixture in Methanol:

Row | SMILES | Solubility by mass ([1]; 10.0 °C) [%] | ratio α (ratio of solubilities s(±)/s(+)) ([1]; 20 °C) | Solubility by mass ([1]; 20.0 °C) [%] | Solubility by mass ([1]; 30.0 °C) [%] | Solubility by mass ([2]; 10.0 °C) [%] | ratio α (ratio of solubilities s(±)/s(+)) ([2]; 20 °C) | Solubility by mass ([2]; 20.0 °C) [%] | Solubility by mass ([2]; 30.0 °C) [%] | Solubility by mass ([2]; 40.0 °C) [%] | Solubility by mass ([3]; 10.0 °C) [%] | ratio α (ratio of solubilities s(±)/s(+)) ([3]; 20 °C) | Solubility by mass ([3]; 20.0 °C) [%] | Solubility by mass ([3]; 30.0 °C) [%] | Solubility by mass ([3]; 40.0 °C) [%]
1 | O=C(O)C[S+]([O-])C(c1ccccc1)c1ccccc1 (racemic) [(±)-modafinil acid, (±)-benzhydrylsulphinylacetic acid] | 3.0 | 2.06 | 4.1 | 5.96 | 7.4 | 2.53 | 8 | 13.5 | 16 | 7.4 | 2.53 | 9.7 | 13.9 | 25.7
2 | O=C(O)C[S+]([O-])C(c1ccccc1)c1ccccc1 (single isomer, unassigned; (+)) [(+)-antipode] |  |  | 1.99 |  |  |  | 4 |  |  |  |  | 4.9 |  | 
